Measurements reported in patent publication US8609870B2, “Treating various disorders using TrkB agonists” (Emory University, priority 2008, dated 2013).

Tests used:
hippocampal neurons = experiment: Oxygen-glucose deprivation (OGD) apoptosis in hippocampal neurons; type: cell-based
TrkB F616A knockin mice = experiment: KA-provoked apoptosis (caspase-3) in TrkB F616A knockin mice; type: in vivo, mouse; conditions: TrkB F616A mice, without 1NMPP1
Description: To determine if 1NMPP1 makes neurons treated with an identified active compound vulnerable to KA-provoked neuronal cell death, TrkF616A knockin mice are fed with 1NMPP1 (25 mM) in drinking water one day prior to pharmacological reagent treatment. The next day, the mice are intraperitoneally injected with KA (25 mg/kg), or an identified active compound (5 mg/kg) 4 hours prior to KA injection. The control mice are injected with either KA or an identified active compound alone, or the mice are administered an identified active compound 4 hours before KA. After 4 days, the mice are sacrificed and the brains are homogenized and ultracentrifuged. The supernatant then is employed for SDS-PAGE and immunoblotting analysis.
[…] inversely correlated with TrkB activation by deoxygedunin (FIG. 20, top and middle panels).

TrkC = target: T1, TrkC (Homo sapiens, UniProt Q16288); experiment: Tyrosine phosphorylation of TrkC in transfected HEK293 cells; type: cell-based
T1 construct: expressed in transfected cells; host or cells: HEK293
T1 sequence (Q16288 32-839, species assumed): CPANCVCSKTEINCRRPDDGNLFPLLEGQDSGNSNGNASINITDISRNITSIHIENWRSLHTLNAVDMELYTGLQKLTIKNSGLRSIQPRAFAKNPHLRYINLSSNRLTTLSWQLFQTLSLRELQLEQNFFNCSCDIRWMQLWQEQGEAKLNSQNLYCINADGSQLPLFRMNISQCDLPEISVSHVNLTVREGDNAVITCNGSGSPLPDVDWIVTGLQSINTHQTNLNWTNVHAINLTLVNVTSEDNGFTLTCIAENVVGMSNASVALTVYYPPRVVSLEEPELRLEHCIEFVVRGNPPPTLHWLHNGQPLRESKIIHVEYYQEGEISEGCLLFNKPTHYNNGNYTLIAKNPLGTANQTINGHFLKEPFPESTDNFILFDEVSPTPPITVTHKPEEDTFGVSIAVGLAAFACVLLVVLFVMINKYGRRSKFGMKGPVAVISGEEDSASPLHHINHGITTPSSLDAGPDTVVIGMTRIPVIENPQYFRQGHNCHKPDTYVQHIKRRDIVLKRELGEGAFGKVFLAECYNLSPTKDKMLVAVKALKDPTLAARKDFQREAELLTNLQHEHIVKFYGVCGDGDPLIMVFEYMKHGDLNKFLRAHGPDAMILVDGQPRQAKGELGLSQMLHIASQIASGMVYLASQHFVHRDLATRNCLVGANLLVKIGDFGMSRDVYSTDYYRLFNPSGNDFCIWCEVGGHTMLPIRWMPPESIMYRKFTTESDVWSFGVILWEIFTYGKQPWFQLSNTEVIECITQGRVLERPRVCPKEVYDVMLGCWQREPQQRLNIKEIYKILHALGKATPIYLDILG
Source text: To determine if an identified active compound promotes tyrosine phosphorylation of the other Trk receptors, HEK293 cells are transfected with various Trk receptors, which is followed by treatment with the identified active compound. Treatment with an identified active compound that elicits tyrosine phosphorylation in the TrkB receptor but not in the TrkA or TrkC receptor indicates an active compound.
To determine whether deoxygedunin binds the intra-cellular domain (ICD) or extra-cellular domain (ECD) of the TrkB receptor, ligand binding assays with [^3H]-deoxygedunin were performed. […] The coprecipitated HA-TrkB was also prominently tyrosine phosphorylated (see FIG. 14, 3rd panel).

mice = experiment: Forced swim test; type: in vivo, mouse; conditions: for immobility time: TrkB F616A knockin mice
Description: To explore whether an identified active compound has an antidepressant effect like BDNF, a forced swim test is conducted. Adult male mice (2-3 months old) are randomly submitted, without a pre-swim, to a forced swim test of 6 minutes with immobility recorded in the last 4 minutes. The mice are injected intraperitoneally for 5 days with saline, imipramine (20 mg/kg), amitryptyline (15 mg/kg), or an identified active compound (5 mg/kg). The mice are allowed to adapt to the test room for 2 days, and the mice are placed in a clear glass cylinder with a diameter of 16 cm, half-filled with clear water at 24° C.
To investigate whether deoxygedunin mimicked BDNF in suppressing depression-like symptoms, a forced swim test after subchronic treatment of the mice for 5 days with various drugs was conducted. […] To assess whether the behavior responses by 7,8-DHF and deoxygedunin were mediated by TrkB receptor, TrkB F616A knockin mice were used. The transgenic mice were subjected to saline or 1NMPP1 treatment, respectively.

TrkA or TrkB = experiment: RT-PCR analysis of Trk receptors in mouse brain; type: in vivo; conditions: mouse brain upon deoxygedunin treatment
TrkB = TrkB activation in cortical neurons from knockout mouse pups; type: cell-based
Description: To determine whether an identified active compound selectively activates TrkB receptor and prevents neuronal cell death, cortical neurons are prepared from homozygous pups of TrkB +/− mice, which are mated to the same genotype. The activation of TrkB and down stream indicators of TrkB activation, such as Capase-3, are monitored. To further assess whether an identified active compound blocks neuronal apoptosis in a TrkB dependent manner, cortical neurons are prepared from homozygous pups of […], which are mated to the same genotype. Again, the activation of TrkB and down stream indicators of TrkB activation, such as Capase-3, are monitored.
Additionally, the spontaneous caspase-3 activation in […] was suppressed by deoxygedunin.

TrkA = TrkA (Mus musculus, UniProt Q3UFB7); experiment: TrkA activation in cortical neurons from knockout mouse pups; type: cell-based; parameters: endogenous in cells; host or cells: primary cortical neurons from mouse pups
Chain of TrkA (Q3UFB7 34-799): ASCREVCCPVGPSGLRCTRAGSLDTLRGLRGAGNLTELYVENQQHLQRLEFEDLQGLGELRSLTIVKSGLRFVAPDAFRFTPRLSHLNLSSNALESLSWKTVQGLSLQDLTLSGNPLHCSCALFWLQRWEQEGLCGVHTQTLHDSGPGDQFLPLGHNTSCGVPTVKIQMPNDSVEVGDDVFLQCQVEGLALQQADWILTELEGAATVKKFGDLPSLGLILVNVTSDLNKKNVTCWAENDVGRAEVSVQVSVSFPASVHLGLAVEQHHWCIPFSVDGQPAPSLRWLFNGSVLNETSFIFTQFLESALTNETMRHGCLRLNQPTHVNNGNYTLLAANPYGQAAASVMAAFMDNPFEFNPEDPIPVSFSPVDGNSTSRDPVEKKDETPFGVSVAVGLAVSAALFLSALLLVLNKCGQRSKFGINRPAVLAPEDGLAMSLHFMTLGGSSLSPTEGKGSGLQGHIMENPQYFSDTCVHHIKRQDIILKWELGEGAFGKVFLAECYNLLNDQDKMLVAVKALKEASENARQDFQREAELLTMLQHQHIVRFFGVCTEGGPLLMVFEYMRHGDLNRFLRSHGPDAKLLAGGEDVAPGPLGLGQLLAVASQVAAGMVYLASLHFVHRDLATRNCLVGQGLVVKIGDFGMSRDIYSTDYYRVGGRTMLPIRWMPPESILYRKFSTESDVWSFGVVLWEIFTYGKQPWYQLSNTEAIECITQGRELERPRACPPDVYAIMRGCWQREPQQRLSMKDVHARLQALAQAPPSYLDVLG

adult male rats = experiment: Transient middle cerebral artery occlusion (MCAO) stroke model; conditions: 2 h MCAO
[1] = both wild-type and TrkC knockout neurons

Question: CC(=O)O[C@@H]1C[C@H]2C(C)(C)C(=O)C=C[C@]2(C)[C@H]2CC[C@]3(C)C(=CC(=O)O[C@H]3c3ccoc3)[C@@]21C [deoxygedunin] was tested. Which “protective effects on hippocampal neurons under OGD” value (hippocampal neurons; apoptotic ratio compared to BDNF and DMSO) did it give?
Answer: The value was “potent protective effects”.

Question: What about the “titration assay under OGD” value (hippocampal neurons; dose titration) of the same compound?
Answer: The value was “protects neurons in a dose-dependent manner”.

Question: What about the KA-provoked apoptosis (TrkB F616A knockin mice) of the same compound?
Answer: Its KA-provoked apoptosis is “suppressed KA-provoked apoptosis”.

Question: And the “tyrosine phosphorylation in TrkC” value (TrkC)?
Answer: Its value is “not in TrkA or TrkC receptor”.

Question: And the immobility time (mice; TrkB blocked by 1NMPP1)?
Answer: Its immobility time is “did not have a significant effect”.

Question: And the immobility time (mice; saline group)?
Answer: Its immobility time is “substantially reduced the immobility time”.

Question: And the swimming immobility (mice; mice, subchronic treatment 5 days, imipramine 20 mg/kg, deoxygedunin 5 mg/kg)?
Answer: Its swimming immobility is “reduced the immobility”.

Question: What about the “change of TrkA or TrkB (RT-PCR)” value (TrkA or TrkB) of the same compound?
Answer: The value was “no change of TrkA or TrkB”.

Question: And the TrkB activation (TrkB; TrkB −/− cortical neurons)?
Answer: The TrkB activation was “not TrkB −/− neurons”.

Question: What about the TrkB activation (TrkB; [1]) of the same compound?
Answer: Its TrkB activation is “strongly provoked TrkB”.

Question: What about the TrkB activation (TrkB; wild-type cortical neurons (pups of TrkB +/− mice)) of the same compound?
Answer: Its TrkB activation is “specifically activated TrkB”.

Question: And the TrkA activation (TrkA; [1])?
Answer: The TrkA activation was “not TrkA activation”.

Question: And the TrkA activation (TrkA; cortical neurons (pups of TrkB +/− mice))?
Answer: The TrkA activation was “not TrkA receptor”.

Question: And the “survival of ischemic insult and treatment” value (adult male rats; 5 mg/kg)?
Answer: The value was “All animals included in the study survived”.

Question: And the “infarct volumes (TTC stained sections)” value (adult male rats; 5 mg/kg 5 minutes prior to reperfusion, 24 hours after MCAO)?
Answer: Its value is “significantly reduced infarct volumes”.
